Measurements from US8871681B2, “Herbicidal compositions comprising 4-amino-3-chloro-5-fluoro-6-(4-chloro-2-fluoro-3-methoxyphenyl) pyridine-2-carboxylic acid or a derivative thereof and certain sulfonylureas” (Dow AgroSciences LLC, priority 2012, dated 2014).

Assays:
[1] = system: SCPMA (Bolboschoenus maritimus or Schoenoplectus maritimus, sea clubrush); assay: In-water applied weed control, transplanted paddy rice, greenhouse (Example II); type: in vivo, Bolboschoenus maritimus (L.) Palla
Description: (§1) Weed seeds or nutlets of the desired test plant species were planted in puddled soil (mud) prepared by mixing a shredded, non-sterilized mineral soil (50.5 percent silt, 25.5 percent clay, and 24 percent sand, with a pH of about 7.6 and an organic matter content of about 2.9 percent) and water at a 1:1 volumetric ratio. The prepared mud was dispensed in 365 mL aliquots into 16-ounce (oz.) non-perforated plastic pots with a surface area of 86.59 square centimeters (cm^2) leaving a headspace of 3 centimeters (cm) in each pot. Rice seeds were planted in Sun Gro MetroMix® 306 planting mixture, which typically has a pH of 6.0 to 6.8 and an organic matter content of about 30 percent, in plastic plug trays. Seedlings at the second or third leaf stage of growth were transplanted into 860 mL of mud contained in 32-oz. non-perforated plastic pots with a surface area of 86.59 cm^2 4 days prior to herbicide application. The paddy was created by filling the headspace of the pots with 2.5 to 3 cm of water. When required to ensure good germination and healthy plants, a fungicide treatment and/or other chemical or physical treatment was applied. The plants were grown for 4-22 days in a greenhouse with an approximate 14 h photoperiod which was maintained at about 29′C during the day and 26° C. during the night. Nutrients were added as Osmocote® (19:6:12, N:P:K+minor nutrients) at 2 g per 16-oz. pot and 4 g per 32-oz. pot. Water was added on a regular basis to maintain the paddy flood, and supplemental lighting was provided with overhead metal halide 1000-Watt lamps as necessary. The plants were employed for testing when they reached the first through fourth true leaf stage.
(§2) Treatments consisted of the acid or esters of 4-amino-3-chloro-5-fluoro-6-(4-chloro-2-fluoro-3-methoxy-phenyl)pyridine-2-carboxylic acid (compound A) each formulated as an SC and various herbicidal components alone and in combination. Forms of compound A were applied on an acid equivalent basis.
(§3) Other herbicidal components were applied on an active ingredient basis and included acetolactate synthase (ALS)-inhibiting herbicides (sulfonylurea chemical class), azimsulfuron formulated as Gulliver®, bensulfuron-methyl formulated as Londax® 60DF, cyclosulfamuron (technical grade materail), ethoxysulfuron formulated as Sunrice® 15 WDG, flucetosulfuron formulated as Sukedachi® 1KG G, imazosulfuron formulated as Brazzos®, metsulfuron-methyl formulated as Lorate®, nicosulfuron formulated as Accent®, orthosulfamuron formulated as Strada® WG, propyrisulfuron formulated as Zeta One®, and rimsulfuron formulated as Matrix® WG.
(§4) Treatment requirements for each compound or herbicidal component were calculated based upon the rates being tested, the concentration of active ingredient or acid equivalent in the formulation, an application volume of 2 mL per component per pot, and an application area of 86.59 cm^2 per pot.
(§5) For formulated compounds, a measured amount was placed in an individual 100 or 200 mL glass vial and was dissolved in a volume of 1.25% (v/v) Agri-Dex® crop oil concentrate to obtain application solutions.
(§6) For technical grade compounds, a weighed amount was placed in an individual 100 to 200 mL glass vial and was dissolved in a volume of acetone to obtain concentrated stock solutions. […] The concentrated stock solutions obtained were diluted with an equivalent volume of an aqueous mixture containing 2.5% (v/v) crop oil concentrate so that the final application solutions contained 1.25% (v/v) crop oil concentrate.
(§7) Applications were made by injecting with a pipetter appropriate amounts of the application solutions, individually and sequentially, into the aqueous layer of the paddy. Control plants were treated in the same manner with the solvent blank. Applications were made so that all treated plant material received the same concentrations of acetone and crop oil concentrate. […]

[2] = system: CYPIR (Cyperus iria, rice flatsedge); assay: Postemergence foliar-applied weed control, direct seeded rice, greenhouse (Example I); type: in vivo, Cyperus iria L.; settings: 22 DAA; 12.5 gai/ha
Text: (§8) Seeds or nutlets of the desired test plant species were planted in a soil matrix prepared by mixing a loam or sandy loam soil (e.g., 28.6 percent silt, 18.8 percent clay, and 52.6 percent sand, with a pH of about 5.8 and an organic matter content of about 1.8 percent) and calcareous grit in an 80 to 20 ratio. The soil matrix was contained in plastic pots with a volume of 1 quart and a surface area of 83.6 square centimeters (cm^2). When required to ensure good germination and healthy plants, a fungicide treatment and/or other chemical or physical treatment was applied. The plants were grown for 8-22 days in a greenhouse with an approximate 14 h photoperiod which was maintained at about 29° C. during the day and 26° C. during the night. Nutrients (Peters Excel® 15-5-15 5-Ca 2-Mg and iron chelate) were applied in the irrigation solution as needed and water was added on a regular basis. Supplemental lighting was provided with overhead metal halide 1000-Watt lamps as necessary. The plants were employed for testing when they reached the first through fourth true leaf stage.
(§9) Treatments consisted of the acid or esters of 4-amino-3-chloro-5-fluoro-6-(4-chloro-2-fluoro-3-methoxy-phenyl)pyridine-2-carboxylic acid (Compound A), each formulated as an SC, and various herbicidal components alone and in combination. Forms of compound A were applied on an acid equivalent basis.
(§10) Other herbicidal components were applied on an active ingredient basis and included acetolactate synthase (ALS)-inhibiting herbicides (sulfonylurea chemical class) azimsulfuron formulated as Gulliver®, bensulfuron-methyl formulated as Londax® 60DF, cyclosulfamuron (technical material), ethoxysulfuron formulated as Sunrice® 15 WDG, flazasulfuron formulated as Katana®, flucetosulfuron formulated as Sukedachi® 1KG G, foramsulfuron formulated as Option®, imazosulfuron formulated as Brazzos® WG, iodosulfuron-methyl-sodium formulated as Hussar®, metsulfuron-methyl formulated as Lorate®, nicosulfuron formulated as Accent®, orthosulfamuron formulated as Strada® WG, primisulfuron-methyl (technical material), propyrisulfuron formulated as Zeta One®, rimsulfuron formulated as Matrix® WG, sulfometuron-methyl formulated as Oust®, and trifloxysulfuron-sodium formulated as Monument® 75WG.
(§11) Treatment requirements were calculated based upon the rates being tested, the concentration of active ingredient or acid equivalent in the formulation, and a 12 mL application volume at a rate of 187 L/ha.
(§12) For treatments comprised of formulated compounds, measured amounts of compounds were placed individually in 25 mL glass vials and diluted in a volume of 1.25% (v/v) Agri-Dex® crop oil concentrated to obtain 12× stock solutions. […] Application solutions were prepared by adding an appropriate amount of each stock solution (e.g., 1 mL) and diluted to the appropriate final concentrations with the addition of 10 mL of an aqueous mixture of 1.25% (v/v) crop oil concentrate so that the final spray solutions contained 1.25+/−0.05% (v/v) Agrcrop oil concentrate.
(§13) For treatments comprised of formulated and technical compounds, weighed amounts of the technical materials were placed individually in 25 mL glass vials and dissolved in a volume of 97:3 v/v acetone/DMSO to obtain 12× stock solutions, and measured amounts of the formulated compounds were placed individually in 25 mL glass vials and diluted in a volume of 1.25% (v/v) crop oil concentrate to obtain 12× stock solutions. […] Application solutions were prepared by adding an appropriate amount of each stock solution (e.g., 1 mL) and diluted to the appropriate final concentrations with the addition of an appropriate amount of an aqueous mixture of 1.5% (v/v) crop oil concentrate so that the final spray solutions contained 1.25% (v/v) crop oil concentrate. […]

[3] = system: LEFCH (Leptochloa chinensis, Chinese sprangletop); assay: as above; type: in vivo, Leptochloa chinensis (L.) Nees; settings: Dinebra chinensis, post-emergence
Text: as §8, §9, §10, §11, §12, §13

[4] = system: ECHOR (Echinochloa oryzoides, early watergrass); assay: In-water applied weed control, transplanted paddy rice, greenhouse (Example II); type: in vivo, Echinochloa oryzoides (Ard.) Fritsch
Description: as §1, §2, §3, §4, §5, §6, §7

[5] = system: BRAPP (Brachiaria platyphylla, broadleaf signalgrass); assay: Postemergence foliar-applied weed control, direct seeded rice, greenhouse (Example I); type: in vivo, Brachiaria platyphylla (Griseb.) Nash; settings: Urochloa platyphylla, post-emergence, 480 h, 20 DAA, read-out: Visual Weed Control (%) Obs
Text: as §8, §9, §10, §11, §12, §13

[6] = system: DIGSA (Digitaria sanguinalis, large crabgrass); assay: as above; type: in vivo, Digitaria sanguinalis (L.) Scop.
Text: as §8, §9, §10, §11, §12, §13

[7] = Table 28, second set, 25 gai/ha alone

`COc1cc(OC)nc(NC(=O)NS(=O)(=O)Nc2ccccc2C(=O)C2CC2)n1` [Cyclosulfamuron, N-[[[2-(cyclopropylcarbonyl)phenyl]amino]sulfonyl]-N′-(4,6-dimethoxy-2-pyrimidinyl)urea, reference compound] was tested, and the “Visual Weed Control (%) - 21 DAA SCPMA Obs” value ([1]; Table 33, 12.5 gai/ha alone) was 75% and the “Visual Weed Control (%) Obs” value [2] was 95%.

`COc1cc(OC)nc(NC(=O)NS(=O)(=O)c2cc(NC=O)ccc2C(=O)N(C)C)n1` [Foramsulfuron, 2-[[[[(4,6-dimethoxy-2-pyrimidinyl)amino]carbonyl]amino]sulfonyl]-4-(formylamino)-N,N-dimethylbenzamide] gave a pest or weed control at 20 g/ha ([3]; 504 h, 21 DAA, 20 gai/ha, read-out: Visual Weed Control (%) Obs) of 0% and a pest or weed control at 40 g/ha ([3]; 504 h, 21 DAA, 40 gai/ha, read-out: Visual Weed Control (%) Obs) of 25%.

With `COc1cc(OC)nc(NC(=O)NS(=O)(=O)c2c(-c3nnn(C)n3)cnn2C)n1` [Azimsulfuron, N-[[(4,6-dimethoxy-2-pyrimidinyl)amino]carbonyl]-1-methyl-4-(2-methyl-2H-tetrazol-5-yl)-1H-pyrazole-5-sulfonamide, reference compound] the “Visual Weed Control (%) - 20 DAA ECHOR Obs” value ([4]; Table 28, 2.5 gai/ha alone) was 0%, the “Visual Weed Control (%) - 20 DAA ECHOR Obs” value [4, 7] was 60% and the “Visual Weed Control (%) - 20 DAA ECHOR Obs” value ([4]; Table 29, 2.5 gai/ha alone) was 0%. For the same compound, the “Visual Weed Control (%) - 20 DAA ECHOR Obs” value ([4]; Table 29, 5 gai/ha alone) was 20%, the “Visual Weed Control (%) - 20 DAA ECHOR Obs” value ([4]; Table 29, 25 gai/ha alone) was 60% and the “Visual Weed Control (%) - 20 DAA ECHOR Obs” value ([4]; Table 30, 25 gai/ha alone) was 60%. The “Visual Weed Control (%) - 20 DAA SCPMA Obs” value ([1]; Table 28, 2.5 gai/ha alone) was 70%, the “Visual Weed Control (%) - 20 DAA SCPMA Obs” value [1, 7] was 85% and the “Visual Weed Control (%) - 20 DAA SCPMA Obs” value ([1]; Table 29, 2.5 gai/ha alone) was 70%. The “Visual Weed Control (%) - 20 DAA SCPMA Obs” value ([1]; Table 29, 25 gai/ha alone) was 85%, the pest or weed control at 3.125 g/ha ([5]; 3.125 gai/ha) was 0% and the pest or weed control at 6.25 g/ha ([5]; 6.25 gai/ha) was 0%. The pest or weed control at 12.5 g/ha ([5]; 12.5 gai/ha) was 60%, the pest or weed control at 3.125 g/ha ([3]; 480 h, 20 DAA, 3.125 gai/ha, read-out: Visual Weed Control (%) Obs) was 0% and the pest or weed control at 6.25 g/ha ([3]; 480 h, 20 DAA, 6.25 gai/ha, read-out: Visual Weed Control (%) Obs) was 0%.

With `COC(=O)c1ccccc1S(=O)(=O)NC(=O)Nc1nc(OC(F)F)cc(OC(F)F)n1` [Primisulfuron-methyl, methyl 2-[[[[[4,6-bis(difluoromethoxy)-2-pyrimidinyl]amino]carbonyl]amino]sulfonyl]benzoate] the pest or weed control at 15 g/ha ([3]; 504 h, read-out: Visual Weed Control (%) Obs, 21 DAA, 15 gai/ha) was 40% and the pest or weed control at 30 g/ha ([3]; 504 h, read-out: Visual Weed Control (%) Obs, 21 DAA, 30 gai/ha) was 60%.

For `COC(=O)c1ccccc1S(=O)(=O)NC(=O)Nc1nc(C)cc(C)n1` [Sulfometuron-methyl, methyl 2-[[[[(4,6-dimethyl-2-pyrimidinyl)amino]carbonyl]amino]sulfonyl]benzoate, reference compound], the “Visual Weed Control (%) Obs” value ([6]; 22 DAA, 35 gai/ha) was 85%.

In the case of `COc1cc(OC)nc(NC(=O)[N-]S(=O)(=O)c2ncccc2OCC(F)(F)F)n1.[Na+]` [Trifloxysulfuron-sodium], the “Visual Weed Control (%) - 21 DAA DIGSA Obs” value ([6]; Table 27, foliar-applied, 24 gai/ha alone) is reported as 65%.
